According to ChEMBL document CHEMBL4477198, “Metabolites from the Fungal Endophyte Aspergillus austroafricanus in Axenic Culture and in Fungal-Bacterial Mixed Cultures” (J Nat Prod, 2016):
pEC50: −log10 of the molar value. Active and inactive are the calls of the source. No cut-off for these calls is given here.

Tests used:
Bacillus subtilis = experiment: Antibacterial activity against Bacillus subtilis 168 trpC2 by broth microdilution method; type: functional
[1] = tested on: Mycobacterium tuberculosis; experiment: Antibacterial activity against Mycobacterium tuberculosis H37Rv by broth microdilution method; type: functional
L5178Y = experiment: Cytotoxicity against mouse L5178Y cells by MTT assay; type: functional, cell-based
Staphylococcus aureus = experiment: Antibacterial activity against Staphylococcus aureus ATCC 700699 by broth microdilution method; type: functional

Structure (SMILES) | Activity [1] | further results
O=C(O)c1cn(C2CC2)c2cc(N3CCNCC3)c(F)cc2c1=O [CIPROFLOXACIN] |  | MIC (Bacillus subtilis): 0.008 µg/mL
CC(C)[C@@H](C)/C=C/[C@@H](C)[C@H]1CC[C@H]2C3=CC=C4C[C@@H](O)CC[C@]4(C)[C@H]3CC[C@]12C [ERGOSTEROL] | inactive | pEC50 (L5178Y): 4.90
Cc1cc(O)c(O)c(Oc2cc(C)cc(O)c2O)c1 | inactive | MIC (Staphylococcus aureus): 25 µM
CC1(C)CCC[C@](C)(c2ccc(C(=O)O)cc2O)O1 | inactive | 
Cc1cc(O)c(Oc2cc(C)cc(O)c2O)c(O)c1 | inactive | MIC (Staphylococcus aureus): 25 µM
C=CC(C)(C)[C@@]12C=C(OC)C(=O)N3/C(=C/c4c[nH]cn4)C(=O)N[C@]31N(OC)c1ccccc12 | inactive | 
COC(=O)c1c(O)ccc2oc3cc(CO)cc(O)c3c(=O)c12 | inactive | 
COc1c(N2C[C@@H]3CCCN[C@@H]3C2)c(F)cc2c(=O)c(C(=O)O)cn(C3CC3)c12 [MOXIFLOXACIN] |  | MIC (Staphylococcus aureus): 1.56 µg/mL
CC(C)(O)CCC[C@](C)(O)c1ccc(C(=O)O)cc1 | inactive | 
Cc1cc(O)cc(Oc2cc(C)c(C(N)=O)c(O)c2)c1 | inactive | 
Cc1cc(O)cc(Oc2cc(C)cc(O)c2)c1 [DIORCINOL] | inactive | MIC (Bacillus subtilis): 34.8 µM
COc1c(O)c(O)c(O)c2oc3c(Oc4c(O)cc(C)c5c(=O)c6c(O)cc(CO)cc6oc45)c(O)cc(C)c3c(=O)c12 | inactive | 
O=c1cc(CO)c(O)co1 | inactive | 
